23 compounds from patent US9624170B2, “4-(piperrazin-1-yl)-pyrrolidin-2-one compounds as monoacylglycerol lipase (MAGL) inhibitors” (TAKEDA PHARMACEUTICAL COMPANY LIMITED, priority 2013, dated 2017) can be followed below.

The first assay has as its target T1, human MAGL (His-hMAGL) (Homo sapiens, UniProt Q99685).
T1 construct: made in house; host or cells: Escherichia coli BL21(DE3)
T1 sequence (Q99685 1-303): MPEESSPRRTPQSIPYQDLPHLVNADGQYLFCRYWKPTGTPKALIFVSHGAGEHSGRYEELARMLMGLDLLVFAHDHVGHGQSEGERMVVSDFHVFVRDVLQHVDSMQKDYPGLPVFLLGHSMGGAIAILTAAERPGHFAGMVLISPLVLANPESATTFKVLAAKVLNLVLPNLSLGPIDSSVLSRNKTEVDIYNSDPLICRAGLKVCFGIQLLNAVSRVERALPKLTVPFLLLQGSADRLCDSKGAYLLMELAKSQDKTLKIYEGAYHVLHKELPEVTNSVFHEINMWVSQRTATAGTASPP
Put plainly: Measurement of MAGL inhibitory activity by mass spectrometry. The format is biochemical. The note with it: 10 μM test compound; substrate 2-arachidonylglycerol, arachidonic acid by RapidFire-mass spectrometry. The method, boiled down: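 His-tagged human MAGL was reacted with 150 μM 2-arachidonylglycerol substrate (stock, added by 5 μL) for 10 min at room temperature, then stopped with formic acid. Arachidonic acid product was quantified by RapidFire–triple-quadrupole MS in negative SRM mode, corrected by arachidonic acid-d8, and converted to percent inhibition.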
In the case of `Cc1cccc(-c2cccc(N3CC(N4CCN(C(=O)c5nccs5)CC4)CC3=O)c2)c1C` (centres unmarked) [Example 143, 1-(2′,3′-dirnethylbiphenyl-3-yl)-4-(4-(1,3-thiazol-2-ylcarbonyl)piperazin-1-yl)pyrrolidin-2-one], the inhibition – broadly, the change of the read-out against control, counted positive when it falls – at 10 µM came out at 102%.
In the case of `Cc1cccc(-c2cccc(N3CC(N4CCN(C(=O)c5nccs5)CC4)CC3=O)c2)c1` (centres unmarked) [Example 91, 1-(3′-methylbiphenyl-3-yl)-4-(4-(1,3-thiazol-2-ylcarbonyl)piperazin-1-yl)pyrrolidin-2-one], the inhibition at 10 µM was 102%.
Still for that read-out and setting: with `Cc1ncccc1-c1cccc(N2CC(N3CCN(C(=O)c4cscn4)CC3)CC2=O)c1` (centres unmarked) [Example 169, 1-(3-(2-methylpyridin-3-yl)phenyl)-4-(4-(1,3-thiazol-4-ylcarbonyl)piperazin-1-yl)pyrrolidin-2-one] the figure was 97%; with `Cn1nccc1-c1cccc(N2CC(N3CCN(C(=O)c4nccs4)CC3)CC2=O)c1` (centres unmarked) [Example 101, 1-(3-(1-methyl-1H-pyrazol-5-yl)phenyl)-4-(4-(1,3-thiazol-2-ylcarbonyl)piperazin-1-yl)pyrrolidin-2-one], 99%.

Staying with this assay, now noted: MAGL inhibitory rate, test compound 10 μM, His-hMAGL, substrate 2-arachidonylglycerol, RapidFire-mass spectrometry.
`Cc1cnc(-n2ccc3cc(N4CC(N5CCN(C(=O)c6nccs6)CC5)CC4=O)ccc32)nc1` (centres unmarked) [Example 358, 1-(1-(5-methylpyrimidin-2-yl)-1H-indol-5-yl)-4-(4-(1,3-thiazol-2-ylcarbonyl)piperazin-1-yl)pyrrolidin-2-one]: the inhibition at 10 µM amounted to 102%.
Take `Cc1cc(Cl)ccc1-c1cccc(N2CC(N3CCN(C(=O)c4nccs4)CC3)CC2=O)c1` (centres unmarked) [Example 356, 1-(4′-chloro-2′-methylbiphenyl-3-yl)-4-(4-(1,3-thiazol-2-ylcarbonyl)piperazin-1-yl)pyrrolidin-2-one]: the inhibition at 10 µM was 98%.
Regarding `COc1cc(C(F)(F)F)ccc1-c1cccc(N2CC(N3CCN(C(=O)c4nccs4)CC3)CC2=O)c1` (centres unmarked) [Example 310, 1-(2′-methoxy-4′-(trifluoromethyl)biphenyl-3-yl)-4-(4-(1,3-thiazol-2-ylcarbonyl)piperazin-1-yl)pyrrolidin-2-one], the inhibition at 10 µM was found to be 98%.
Still for that read-out and setting: next, `Cc1nc2ccccn2c1-c1cccc(N2CC(N3CCN(C(=O)c4nccs4)CC3)CC2=O)c1` (centres unmarked) [Example 335, 1-(3-(2-methylimidazo[1,2-a]pyridin-3-yl)phenyl)-4-(4-(1,3-thiazol-2-ylcarbonyl)piperazin-1-yl)pyrrolidin-2-one]: 101%; `O=C(c1nccs1)N1CCN(C2CC(=O)N(c3cc(-c4ccccc4F)c4[nH]ccc4c3)C2)CC1` (centres unmarked) [Example 353, 1-(7-(2-Fluorophenyl)-1H-indol-5-yl)-4-(4-(1,3-thiazol-2-ylcarbonyl)piperazin-1-yl)pyrrolidin-2-one]: 101%.
Same read-out and setting: with `O=C(c1nccs1)N1CCN(C2CC(=O)N(c3ccc(-c4ccco4)cc3)C2)CC1` (centres unmarked) [Example 207, 1-(4-(2-furyl)phenyl)-4-(4-(1,3-thiazol-2-ylcarbonyl)piperazin-1-yl)pyrrolidin-2-one] the figure was 97%; with `O=C(c1nccs1)N1CCN(C2CC(=O)N(c3ccc(-c4ccccc4F)cc3)C2)CC1` (centres unmarked) [Example 179, 1-(2′-fluorobiphenyl-4-yl)-4-(4-(1,3-thiazol-2-ylcarbonyl)piperazin-1-yl)pyrrolidin-2-one], 98%; with `O=C(c1nccs1)N1CCN(C2CC(=O)N(c3cccc(-c4c(F)c(F)c(F)c(F)c4F)c3)C2)CC1` (centres unmarked) [Example 330, 1-(2′,3′,4′,5′,6′-pentafluorobiphenyl-3-yl)-4-(4-(1,3-thiazol-2-ylcarbonyl)piperazin-1-yl)pyrrolidin-2-one], 101%.
On to `CN1C(=O)Cc2c(-c3cccc(N4CC(N5CCN(C(=O)c6nccs6)CC5)CC4=O)c3)cccc21` (centres unmarked) [Example 230, 1-methyl-4-(3-(2-oxo-4-(4-(1,3-thiazol-2-ylcarbonyl)piperazin-1-yl)pyrrolidin-1-yl)phenyl)-1,3-dihydro-2H-indol-2-one], for which the inhibition at 10 µM worked out at 101%.
`O=C(c1nccs1)N1CCN(C2CC(=O)N(c3cccc(-c4cccc5cn[nH]c45)c3)C2)CC1` (centres unmarked) [Example 317, 1-(3-(1H-indazol-7-yl)phenyl)-4-(4-(1,3-thiazol-2-ylcarbonyl)piperazin-1-yl)pyrrolidin-2-one]: the inhibition at 10 µM was 99%.
In the case of `O=C(c1nccs1)N1CCN([C@@H]2CC(=O)N(c3ccc4c(c3)CCN4c3cc(C(F)(F)F)ncn3)C2)CC1` [Example 385, (4R)-4-(4-(1,3-thiazol-2-ylcarbonyl)piperazin-1-yl)-1-(1-(6-(trifluoromethyl)pyrimidin-4-yl)-2,3-dihydro-1H-indol-5-yl)pyrrolidin-2-one], the inhibition at 10 µM stood at 100%.
Turning to `Cc1cc(-c2ccc(N3CC(N4CCN(C(=O)c5nccs5)CC4)CC3=O)cc2)n(C)n1` (centres unmarked) [Example 180, 1-(4-(1,3-dimethyl-1H-pyrazol-5-yl)phenyl)-4-(4-(1,3-thiazol-2-ylcarbonyl)piperazin-1-yl)pyrrolidin-2-one], the inhibition at 10 µM is 94%.
On the same count and under the same terms, with `O=C(c1nccs1)N1CCN(C2CC(=O)N(c3ccc(F)c(-c4ccc(F)cc4Cl)c3)C2)CC1` (centres unmarked) [Example 276, 1-(2′-chloro-4′,6-difluorobiphenyl-3-yl)-4-(4-(1,3-thiazol-2-ylcarbonyl)piperazin-1-yl)pyrrolidin-2-one] the figure was 102%.
In the case of `CC(C)Oc1ccccc1-c1cccc(N2CC(N3CCN(C(=O)c4nccs4)CC3)CC2=O)c1` (centres unmarked) [Example 309, 1-(2′-isopropoxybiphenyl-3-yl)-4-(4-(1,3-thiazol-2-ylcarbonyl)piperazin-1-yl)pyrrolidin-2-one], the inhibition at 10 µM is 103%.
On the same count and under the same terms, next, `CC(C)(C)OC(=O)N1CCc2cc(N3C[C@H](N4CCN(C(=O)c5cscn5)CC4)CC3=O)ccc21` [Example 408, tert-butyl 5-((4R)-2-oxo-4-(4-(1,3-thiazol-4-ylcarbonyl)piperazin-1-yl)pyrrolidin-1-yl)indoline-1-carboxylate]: 103%; `O=C(c1nccs1)N1CCN(C2CC(=O)N(c3cccc(-c4cccc(Cl)c4Cl)c3)C2)CC1` (centres unmarked) [Example 293, 1-(2′,3′-dichlorophenyl-3-yl)-4-(4-(1,3-thiazol-2-ylcarbonyl)piperazin-1-yl)pyrrolidin-2-one]: 103%.
As to `COc1ccc(CC(=O)N2CCc3cc(N4CC(N5CCN(c6ncccn6)CC5)CC4=O)ccc32)cn1` (centres unmarked) [Example 410, 1-(1-((6-methoxypyridin-3-yl)acetyl)-2,3-dihydro-1H-indol-5-yl)-4-(4-(pyrimidin-2-yl)piperazin-1-yl)pyrrolidin-2-one], the inhibition at 10 µM was found to be 80%.
Regarding `O=C(c1nccs1)N1CCN(C2CC(=O)N(c3cccc(-c4ccc(C(F)(F)F)cc4)c3)C2)CC1` (centres unmarked) [Example 288, 4-(4-(1,3-thiazol-2-ylcarbonyl)piperazin-1-yl)-1-(4′-(trifluoromethyl)biphenyl-3-yl)pyrrolidin-2-one], the inhibition at 10 µM was 97%.
As to `O=C(c1nccs1)N1CCN(C2CC(=O)N(c3ccc4c(c3)CCN4C(=O)CC3CCOCC3)C2)CC1` (centres unmarked) [Example 401, 1-(1-(tetrahydro-2H-pyran-4-ylacetyl)-2,3-dihydro-1H-indol-5-yl)-4-(4-(1,3-thiazol-2-ylcarbonyl)piperazin-1-yl)pyrrolidin-2-one], the inhibition at 10 µM stood at 94%.
